Measurements: patent US7407954B2, “Thieno-(1,3)-oxazin-4-ones with lipase inhibiting activity” (Alizyme Therapeutics Limited, priority 2001, dated 2008)

Key:
human pancreatic lipase = molecular target: T1, human pancreatic lipase (Homo sapiens, UniProt P16233); assay: Lipase activity, quinine diimine dye colorimetric assay (Sigma Lipase-PS); assay type: biochemical
T1 sequence (P16233 17-465): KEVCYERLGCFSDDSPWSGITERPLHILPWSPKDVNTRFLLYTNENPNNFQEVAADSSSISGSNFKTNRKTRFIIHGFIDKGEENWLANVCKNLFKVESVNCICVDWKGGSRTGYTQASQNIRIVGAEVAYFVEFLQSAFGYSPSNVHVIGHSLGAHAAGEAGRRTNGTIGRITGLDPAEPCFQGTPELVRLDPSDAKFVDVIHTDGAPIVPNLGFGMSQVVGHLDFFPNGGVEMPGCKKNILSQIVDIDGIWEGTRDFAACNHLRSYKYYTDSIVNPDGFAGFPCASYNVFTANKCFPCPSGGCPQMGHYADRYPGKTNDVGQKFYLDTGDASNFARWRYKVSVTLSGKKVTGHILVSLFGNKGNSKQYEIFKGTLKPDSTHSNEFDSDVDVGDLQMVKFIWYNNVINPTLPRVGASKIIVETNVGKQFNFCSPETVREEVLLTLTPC
Description: Measurement of Lipase Activity Using a Quinine Diimine Dye Calorimetric Assay
The inhibitory activity of the selected compounds to pancreatic lipase was measured in the following assay available from Sigma Ltd (Lipase-PS™, catalog number 805-A):
The glycerol released from the action of pancreatic and monoglyceride lipase was oxidised to release H2O2. The peroxidase reaction step then produces a quinine dye which is pink in colour and absorbs light at a wavelength of 550 nm.
Individual test compounds were dissolved in DMSO (dimethyl sulphoxide) at 10 mM. DMSO was used to avoid any problems with compounds being water-insoluble.
For individual compounds, the IC50 (concentration at which lipase activity is inhibited to one half of the maximum) was calculated by measuring the inhibitory activity from log-dose response curves using a range of inhibitor concentrations.
A range of standard compounds were assayed in the quinine dye calorimetric assay which provides a rapid method to measure lipase inhibitory activity.

[1] = molecular target: T2, porcine pancreatic lipase (Sus scrofa, UniProt P00591); assay: Lipase enzyme activity, NaOH titration method (lipid micelles); assay type: biochemical; conditions: NaOH titration assay
T2 sequence (P00591 1-450): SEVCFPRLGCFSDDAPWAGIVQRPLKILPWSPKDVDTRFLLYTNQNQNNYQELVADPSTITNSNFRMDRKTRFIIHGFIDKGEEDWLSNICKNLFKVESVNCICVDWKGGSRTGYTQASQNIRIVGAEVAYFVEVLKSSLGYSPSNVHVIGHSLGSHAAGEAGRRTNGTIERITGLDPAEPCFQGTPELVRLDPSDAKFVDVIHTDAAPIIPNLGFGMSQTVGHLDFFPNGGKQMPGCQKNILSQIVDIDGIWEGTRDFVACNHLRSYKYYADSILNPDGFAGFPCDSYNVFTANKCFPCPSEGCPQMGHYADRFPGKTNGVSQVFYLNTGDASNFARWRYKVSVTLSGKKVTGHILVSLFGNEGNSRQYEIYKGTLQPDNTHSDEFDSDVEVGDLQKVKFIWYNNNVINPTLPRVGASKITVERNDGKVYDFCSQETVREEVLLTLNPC
Description: Measurement of Lipase Enzyme Activity Using a NaOH Titration Method
The inhibitory activity of the selected compound to pancreatic lipase was measured in the assay described in Pasquier et al; 1996, Vol 7, Nutritional Biochemistry, 293-302.
Log dose/response curves were constructed using a range of inhibitor concentrations.
Selected thieno-oxazinone compounds were tested in the NaOH titration assay. In this assay, the activity of porcine pancreatic lipase in a system containing lipid micelles is recorded. These conditions are therefore similar to those encountered in the gastrointestinal tract.

| IC50 (human pancreatic lipase) [nM] | IC50 [1] [nM] | SMILES |
| --- | --- | --- |
| < 100 | ≤ 1000 | O=c1oc(Nc2ccc(Oc3ccccc3)cc2)nc2sc(Cl)cc12 [Compound 48, 6-Chloro-2-(4-phenoxy)phenylamino-4H-thieno[2,3-d][1,3]oxazin-4-one] |
| < 100 | ≤ 1000 | O=c1oc(Oc2ccc(Oc3cccc(C(F)(F)F)c3)cc2)nc2ccsc12 [Compound 15, 2-(4-(3-Trifluoromethyl-phenoxy)phenoxy)-4H-thieno[3,2-d][1,3]oxazin-4-one] |
| < 100 | ≤ 1000 | O=c1oc(Nc2ccc(Oc3cccc(C(F)(F)F)c3)cc2)nc2sccc12 [Compound 7, 2-(4-(3-Trifluoromethyl-phenoxy)phenylamino)-4H-thieno[2,3-d][1,3]oxazin-4-one] |
